Results taken from ChEMBL document CHEMBL1177777, “Novel pyridobenzimidazole derivatives exhibiting antifungal activity by the inhibition of beta-1,6-glucan synthesis” (2010).
≈ marks a conversion by molar mass, not a printed value. Calls of active or inactive are those of the source. The rule behind the calls is not given here.

Assays:
[1] = system: Aspergillus fumigatus; experiment: Antifungal activity against Aspergillus fumigatus ATCC 36607 after 24 hrs by microdilution method; type: functional; conditions: ATCC 36607, 24 h
[2] = system: Nakaseomyces glabratus; experiment: Antifungal activity against Candida glabrata IFO 0622 after 24 hrs by microdilution method; type: functional; conditions: IFO 0622, 24 h
[3] = system: Pichia kudriavzevii; experiment: Antifungal activity against Candida krusei TIMM 0269 after 24 hrs by microdilution method; type: functional; conditions: TIMM 0269, 24 h
[4] = system: Candida albicans; experiment: Antifungal activity against Candida albicans ATCC 24433 after 24 hrs by microdilution method; type: functional; conditions: ATCC 24433, 24 h
[5] = system: Candida tropicalis; experiment: Antifungal activity against Candida tropicalis TIMM 0313 after 24 hrs by microdilution method; type: functional; conditions: TIMM 0313, 24 h
[6] = system: Candida albicans; experiment: Antifungal activity against Candida albicans ATCC 24433 assessed as inhibition of beta-1,6-glucan synthesis; type: functional, organism-based
[7] = system: Nakaseomyces glabratus; experiment: Antifungal activity against Candida glabrata IFO 0622 assessed as inhibition of beta-1,6-glucan synthesis; type: functional, organism-based
[8] = system: Candida tropicalis; experiment: Antifungal activity against Candida tropicalis TIMM 0313 assessed as inhibition of beta-1,6-glucan synthesis; type: functional, organism-based
[9] = system: Aspergillus fumigatus; experiment: Antifungal activity against Aspergillus fumigatus ATCC 36607 assessed as inhibition of beta-1,6-glucan synthesis; type: functional, organism-based
[10] = system: Pichia kudriavzevii; experiment: Antifungal activity against Candida krusei TIMM 0269 assessed as inhibition of beta-1,6-glucan synthesis; type: functional, organism-based

CCc1c(C)c(C(N)=O)c2nc3ccccc3n2c1NCCN(C)CC
MIC [1]: > 128 µg/mL | MIC [2]: > 128 µg/mL | MIC [3]: > 128 µg/mL | MIC [4]: > 128 µg/mL | MIC [5]: > 128 µg/mL

Cc1c(CCO)c(N2CC[C@H](N(C)C)C2)n2c(nc3ccccc32)c1C#N
MIC [1]: > 128 µg/mL | MIC [2]: 32 µg/mL (≈ 88 µM) | MIC [3]: 16 µg/mL (≈ 44 µM) | MIC [4]: > 128 µg/mL | MIC [5]: > 128 µg/mL

CCc1c(C)c(C#N)c2nc3ccccc3n2c1N1CCCC1
MIC [1]: > 64 µg/mL | MIC [2]: > 64 µg/mL | MIC [3]: > 64 µg/mL | MIC [4]: > 64 µg/mL | MIC [5]: > 64 µg/mL

CCCCc1c(C)c(C#N)c2nc3ccccc3n2c1N1CC[C@H](N(C)C)C1
MIC [1]: > 128 µg/mL | MIC [2]: ≤ 0.125 µg/mL | MIC [3]: 0.5 µg/mL (≈ 1.33 µM) | MIC [4]: > 128 µg/mL | MIC [5]: 0.5 µg/mL (≈ 1.33 µM)

CCc1c(C)c(C#N)c2nc3ccccc3n2c1NCCN(CC)CC
MIC [1]: > 128 µg/mL | MIC [2]: 1 µg/mL (≈ 2.86 µM) | MIC [3]: 4 µg/mL (≈ 11.4 µM) | MIC [4]: > 128 µg/mL | MIC [5]: > 128 µg/mL

CC(=O)OCCc1c(C)c(C#N)c2nc3ccccc3n2c1N1CC[C@H](N(C)C)C1
MIC [1]: > 128 µg/mL | MIC [2]: 1 µg/mL (≈ 2.47 µM) | MIC [3]: 4 µg/mL (≈ 9.86 µM) | MIC [4]: > 128 µg/mL | MIC [5]: 16 µg/mL (≈ 39.5 µM)

CCc1c(C)c(C#N)c2nc3ccccc3n2c1N1CC[C@H](N(C)C)C1
MIC [1]: > 128 µg/mL | MIC [2]: 0.5 µg/mL (≈ 1.44 µM) | MIC [3]: 2 µg/mL (≈ 5.76 µM) | MIC [4]: > 128 µg/mL | MIC [5]: 32 µg/mL (≈ 92.1 µM)

Cc1c(F)c(N2CC[C@H](N(C)C)C2)n2c(nc3ccccc32)c1C#N
MIC [1]: > 128 µg/mL | MIC [2]: 4 µg/mL (≈ 11.9 µM) | MIC [3]: 16 µg/mL (≈ 47.4 µM) | MIC [4]: > 128 µg/mL | MIC [5]: > 128 µg/mL

CCc1c(C)c(C#N)c2nc3ccccc3n2c1N1CCN(C)CC1
MIC [1]: > 32 µg/mL | MIC [2]: > 32 µg/mL | MIC [3]: > 32 µg/mL | MIC [4]: > 32 µg/mL | MIC [5]: > 32 µg/mL

Cc1cc(N2CC[C@H](N(C)C)C2)n2c(nc3ccccc32)c1C#N
MIC [1]: > 128 µg/mL | MIC [2]: 8 µg/mL (≈ 25 µM) | MIC [3]: 32 µg/mL (≈ 100 µM) | MIC [4]: > 128 µg/mL | MIC [5]: > 128 µg/mL

OC(Cn1cncn1)(Cn1cncn1)c1ccc(F)cc1F [FLUCONAZOLE]
MIC [1]: > 64 µg/mL | MIC [2]: 2 µg/mL (≈ 6.53 µM) | MIC [3]: 16 µg/mL (≈ 52.2 µM) | MIC [4]: 0.25 µg/mL (≈ 0.816 µM) | MIC [5]: 0.25 µg/mL (≈ 0.816 µM)

CCc1c(C)c(C#N)c2nc3ccccc3n2c1N1CC[C@@H](N(C)C)C1
MIC [1]: > 128 µg/mL | MIC [2]: 1 µg/mL (≈ 2.88 µM) | MIC [3]: 16 µg/mL (≈ 46 µM) | MIC [4]: > 128 µg/mL | MIC [5]: 64 µg/mL (≈ 184 µM)

CCCNc1c(CC)c(C)c(C#N)c2nc3ccccc3n12
MIC [1]: > 128 µg/mL | MIC [2]: > 128 µg/mL | MIC [3]: > 128 µg/mL | MIC [4]: > 128 µg/mL | MIC [5]: > 128 µg/mL

CCc1c(C)c(C#N)c2nc3ccccc3n2c1N1CCC(N(C)C)CC1
MIC [1]: > 128 µg/mL | MIC [2]: > 128 µg/mL | MIC [3]: > 128 µg/mL | MIC [4]: > 128 µg/mL | MIC [5]: > 128 µg/mL

CCc1c(C)c(C#N)c2nc3ccccc3n2c1NCCN
MIC [1]: > 128 µg/mL | MIC [2]: 4 µg/mL (≈ 13.6 µM) | MIC [3]: 32 µg/mL (≈ 109 µM) | MIC [4]: > 128 µg/mL | MIC [5]: > 128 µg/mL

CN(C)[C@H]1CCN(c2c(-c3ccccc3)cc(C#N)c3nc4ccccc4n23)C1
MIC [1]: > 128 µg/mL | MIC [2]: ≤ 0.125 µg/mL | MIC [3]: 2 µg/mL (≈ 5.24 µM) | MIC [4]: > 128 µg/mL | MIC [5]: 8 µg/mL (≈ 21 µM)

CCc1c(C)c(C#N)c2nc3ccccc3n2c1NCCCN(C)C
MIC [1]: > 128 µg/mL | MIC [2]: > 128 µg/mL | MIC [3]: > 128 µg/mL | MIC [4]: > 128 µg/mL | MIC [5]: > 128 µg/mL

CCc1c(-c2ccccc2)c(C#N)c2nc3ccccc3n2c1N1CC[C@H](N(C)C)C1
MIC [1]: > 128 µg/mL | MIC [2]: > 128 µg/mL | MIC [3]: > 128 µg/mL | MIC [4]: > 128 µg/mL | MIC [5]: > 128 µg/mL

Cc1c(-c2ccccc2)c(N2CC[C@H](N(C)C)C2)n2c(nc3ccccc32)c1C#N
MIC [1]: > 128 µg/mL | inhibition [6]: Active | MIC [2]: ≤ 0.125 µg/mL | inhibition [7]: Active | MIC [3]: ≤ 0.125 µg/mL | inhibition [8]: Active | MIC [4]: > 128 µg/mL | inhibition [9]: Active | MIC [5]: 0.5 µg/mL (≈ 1.26 µM) | inhibition [10]: Active
